We go through 14 molecules from ChEMBL document CHEMBL4706576, “Tricyclic heterocycles display diverse sensitivity to the A147T TSPO polymorphism” (Eur J Med Chem, 2020).

One assay deals with Translocator protein (Homo sapiens, UniProt P30536). Kind of assay: Displacement of [3H]-PK11195 from wild type TSPO (unknown origin) expressed in human HEK293T cells assessed as inhibitory constant incubated for 90 mins by microbeta scintillation counting method. The class given is cell-based.
The species entered for the next assay is Homo sapiens. Kind of assay: Selectivity index, ratio of Ki for TSPO A147T mutant (unknown origin) to Ki for wild type TSPO (unknown origin).

Chain of Translocator protein (P30536 whole entry): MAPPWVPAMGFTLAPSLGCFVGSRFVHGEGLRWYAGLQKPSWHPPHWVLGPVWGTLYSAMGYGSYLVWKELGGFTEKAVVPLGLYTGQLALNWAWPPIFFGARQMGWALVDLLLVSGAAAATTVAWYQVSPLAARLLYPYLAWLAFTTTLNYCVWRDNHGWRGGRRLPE

In the case of `CN(C)C(=O)CN1Cc2cnn(C)c2Nc2ccccc21`, the Ki on Translocator protein was > 10000 nM. With `CN(Cc1ccccc1)C(=O)CN1Cc2cnn(C)c2Nc2ccccc21`, the Ratio Ki in the assay listed under Homo sapiens is 4.8. For the same molecule, the Ki at Translocator protein stood at 41.3 nM.

For `COc1ccc(-c2nn3c(C)cc(C)nc3c2CC(=O)N(C)C)cc1`, the Ratio Ki in the assay filed under Homo sapiens is 1.7. For the same molecule, on Translocator protein, the Ki turned out to be 338 nM. In the same order, the values of `CCN(Cc1ccccc1)C(=O)CN1c2ccccc2NC(=O)c2ccccc21` are 6.2 and 15.8 nM. In the case of `CCN(Cc1ccccc1)C(=O)Cc1c(-c2ccc(OC)cc2)nn2c(C)cc(C)nc12`, the Ratio Ki in the assay filed under Homo sapiens is 13. At Translocator protein, the Ki was 6.2 nM. In the same order, the values of `COc1ccc(-c2nn3c(C)cc(C)nc3c2CC(=O)N(C)Cc2ccccc2)cc1` are 2.9 and 9.3 nM.

As for `CCN(Cc1ccccc1)C(=O)CN1Cc2cnn(C)c2Nc2ccccc21`, the Ratio Ki in the assay listed under Homo sapiens was 5.5. The inhibition constant (Ki) at Translocator protein came to 41.3 nM.

Take `CN(C)C(=O)CN1c2ccccc2NC(=O)c2ccccc21`: on Translocator protein, the inhibitory constant (Ki) was > 10000 nM. Take `CN(Cc1ccccc1)C(=O)Cn1c2ccccc2c2ccccc21`: the Ratio Ki in the assay listed under Homo sapiens worked out at 2.5.

With `CCN(CC)C(=O)Cn1c2ccccc2c2ccccc21`, the Ratio Ki in the assay filed under Homo sapiens amounted to 5.9.

As to `CCN(CC)C(=O)CN1Cc2cnn(C)c2Nc2ccccc21`, the Ratio Ki in the assay listed under Homo sapiens came out at 4.6. Besides, at Translocator protein, the Ki was determined as 493 nM. In the same order, the values of `CN(Cc1ccccc1)C(=O)CN1c2ccccc2NC(=O)c2ccccc21` are 2.1 and 76.8 nM. Take `CCN(CC)C(=O)CN1c2ccccc2NC(=O)c2ccccc21`: the Ratio Ki in the assay listed under Homo sapiens was 11.8. Also, at Translocator protein, the Ki stood at 200 nM. As for `CCN(Cc1ccccc1)C(=O)Cn1c2ccccc2c2ccccc21`, the Ratio Ki in the assay listed under Homo sapiens turned out to be 5.
